Data on 28 compounds can be found in US20120302566A1, “INDANYLOXYDIHYDROBENZOFURANYLACETIC ACIDS” (BOEHRINGER INGELHEIM INTERNATIONAL GMBH, priority 2010, published 2012).

The target of experiment [1] is T1, human GPR40 receptor (Homo sapiens, UniProt O14842). As to the kind of experiment: Cytosolic calcium measurement using the FLIPR system. It counts as cell-based. Conditions: FLIPR cytosolic Ca2+ peak height; 1321N1 cells stably expressing human GPR40; read-out: EC50 values on GPR40 determined as described in (A). As for the experimental part: (A) Cytosolic calcium measurement using the FLIPR system—1321N1 cells stably expressing human GPR40 receptor (Euroscreen, Belgium) were seeded 24 h before the assay in black clear-bottom collagen-coated 384-well plates in culture medium containing 10% FCS, 1% Na-Pyruvate and 400 μg/ml G418. On the assay day, wells were washed twice with 100 μL Krebs Ringer Buffer (KRB) containing 15 mM sodium hydrogencarbonate and 30 mM Hepes leaving 20 μl rest volume per well. Prior to stimulation the cells were loaded with the Ca^2+-sensitive fluorescent dye from the Calcium4 Assay Kit™ according to the Manufacturer's description (MDS Analytical technologies, Ismaning, Germany) for 80 min at room temperature in the dark, in the presence of 4 mM probenicid. Changes in cytosolic Ca^2+ concentration upon compound addition were monitored using a FLIPR Tetra device (Fluorescence Imaging Plate Reader; MDS Analytical technologies). The peak height of the obtained fluorescence signal was then used to calculate the EC50 values using GraphPad Prism 5 (Graphpad Software Inc, USA) using a sigmoidal curve fitting procedure allowing for a variable hill slope.

The target of experiment [2] is T1, human GPR40 receptor. Put plainly: IP1 accumulation measurements using the IPOne assay system. It counts as cell-based. Conditions: IP1 accumulation (IPOne HTRF), 1 hour stimulation; 1321N1 cells stably expressing human GPR40; read-out: EC50 values on GPR40 determined as described in (B). Here is the method:
(B) IP1 accumulation measurements using the IPOne assay system—1321N1 cells stably expressing human GPR40 receptor (Euroscreen, Belgium) were seeded 24 h before the assay in black clear-bottom collagen-coated 384-well plates in culture medium containing 10% FCS, 1% Na-Pyruvate and 400 μg/mL G418. IP1 is assayed according to the Manufacturer's description (Cisbio Bioassays, France). In brief, the assay is started by substitution of the culture medium by stimulation buffer (Hepes 10 mM, CaCl2 1 mM, MgCl2 0.5 mM, KCl 4.2 mM, NaCl 146 mM and glucose 5.5 mM, pH 7.4) without LiCl. Cells are stimulated for 1 hour at 37°, 10% CO2 by addition of the compounds that were diluted in stimulation buffer containing LiCl yielding a final LiCl concentration of 50 mM. Assays are stopped by adding HTRF-conjugates (IP1-d2 and Anti-IP1 cryptate Tb) and lysis buffer, provided by the manufacturer. After an incubation time of 1 hour at room temperature plates are measured using an EnVision™, Perkin Elmer.

T1 sequence (O14842 whole entry): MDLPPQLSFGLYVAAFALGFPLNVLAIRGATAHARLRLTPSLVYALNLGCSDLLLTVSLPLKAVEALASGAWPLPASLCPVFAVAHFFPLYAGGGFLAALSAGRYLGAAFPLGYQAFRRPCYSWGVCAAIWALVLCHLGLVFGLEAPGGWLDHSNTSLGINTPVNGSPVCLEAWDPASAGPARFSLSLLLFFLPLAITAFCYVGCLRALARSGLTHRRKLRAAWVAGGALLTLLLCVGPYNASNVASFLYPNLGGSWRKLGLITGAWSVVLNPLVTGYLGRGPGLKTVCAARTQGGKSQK

Regarding `O=C(O)CC1COc2cc(OC3CCc4c3cccc4C(F)(F)F)ccc21` (mixture of isomers) [Example 1, [6-(4-Trifluoromethyl-indan-1-yloxy)-2,3-dihydro-benzofuran-3-yl]-acetic acid], the results for the EC50 in experiment [1] and in experiment [2] were 50 nM and 69 nM, respectively.

Regarding `O=C(O)CC1COc2cc(O[C@@H]3CCc4c(Br)cccc43)ccc21` (mixture of isomers) [Example 6, {6-[(R)-4-Bromo-indan-1-yloxy]-2,3-dihydro-benzofuran-3-yl}-acetic acid], the concentration giving a half-maximal response (EC50) was determined as 49 nM in experiment [1] and 62 nM in experiment [2].

As to `CC1(C)CCC=C1c1cccc2c1CC[C@H]2Oc1ccc2c(c1)OCC2CC(=O)O` (mixture of isomers) [Example 15, {6-[(R)-4-(5,5-Dimethyl-cyclopent-1-enyl)-indan-1-yloxy]-2,3-dihydro-benzofuran-3-yl}-acetic acid], the 50% effective concentration (EC50) in experiment [1] was determined as 3840 nM; in experiment [2] it was 30 nM.

Regarding `O=C(O)C[C@H]1COc2cc(O[C@H]3CCc4c3cccc4C(F)(F)F)ccc21` (single isomer, unassigned) [Example 2, [6-(4-Trifluoromethyl-indan-1-yloxy)-2,3-dihydro-benzofuran-3-yl]-acetic acid], the values for the EC50 in experiment [1] and in experiment [2] were 27 nM and 20 nM, respectively.

With `O=C(O)C[C@H]1COc2cc(O[C@H]3CCc4c3cccc4C(F)(F)F)ccc21` (single isomer, unassigned) [Example 5, [6-(4-Trifluoromethyl-indan-1-yloxy)-2,3-dihydro-benzofuran-3-yl]-acetic acid], the 50% effective concentration (EC50) turned out to be 2280 nM in experiment [1] and 8990 nM in experiment [2].

Turning to `O=C(O)C[C@H]1COc2cc(O[C@H]3CCc4c3cccc4C(F)(F)F)ccc21` (stereo in doubt) [3/4, [6-(4-Trifluoromethyl-indan-1-yloxy)-2,3-dihydro-benzofuran-3-yl]-acetic acid], the half-maximal effective concentration (EC50) in experiment [1] is 186 nM; in experiment [2], 501 nM.

On to `Cn1cc(-c2cccc3c2CC[C@H]3Oc2ccc3c(c2)OCC3CC(=O)O)cn1` (stereo partly drawn) [Example 7, {6-[(R)-4-(1-Methyl-1H-pyrazol-4-yl)-indan-1-yloxy]-2,3-dihydro-benzofuran-3-yl}-acetic acid], for which the EC50 in experiment [1] was found to be 710 nM; in experiment [2] it was 2000 nM.

Regarding `O=C(O)CC1COc2cc(O[C@@H]3CCc4c(C5=CCOCC5)cccc43)ccc21` (stereo partly drawn) [Example 8, {6-[(R)-4-(3,6-Dihydro-2H-pyran-4-yl)-indan-1-yloxy]-2,3-dihydro-benzofuran-3-yl}-acetic acid], the EC50 in experiment [1] came out at 312 nM; in experiment [2] it was 1570 nM.

For the compound `Cn1ccc(-c2cccc3c2CC[C@H]3Oc2ccc3c(c2)OCC3CC(=O)O)cc1=O` (stereo partly drawn) [Example 9, {6-[(R)-4-(1-Methyl-2-oxo-1,2-dihydro-pyridin-4-yl)-indan-1-yloxy]-2,3-dihydro-benzofuran-3-yl}-acetic acid], the EC50 in experiment [1] was 3250 nM; in experiment [2] it was over 10000 nM.

On to `COc1ccc(-c2cccc3c2CC[C@H]3Oc2ccc3c(c2)OCC3CC(=O)O)cc1` (stereo partly drawn) [Example 10, {6-[(R)-4-(4-Methoxy-phenyl)-indan-1-yloxy]-2,3-dihydro-benzofuran-3-yl}-acetic acid], for which the values for the EC50 in experiment [1] and in experiment [2] were 333 nM and 178 nM, respectively.

As to `COC(c1cccc2c1CCC2Oc1ccc2c(c1)OCC2CC(=O)O)C(F)F` (stereo not drawn) [Example 11, {6-[4-(2,2-Difluoro-1-methoxy-ethyl)-indan-1-yloxy]-2,3-dihydro-benzofuran-3-yl}-acetic acid], the EC50 in experiment [1] was determined as 628 nM; in experiment [2], 2230 nM.

As to `CC(C)(O)C(F)(F)c1cccc2c1CC[C@H]2Oc1ccc2c(c1)OC[C@H]2CC(=O)O` [Example 85, {(S)-6-[(R)-4-(1,1-Difluoro-2-hydroxy-2-methyl-propyl)-indan-1-yloxy]-2,3-dihydro-benzofuran-3-yl}-acetic acid], the EC50 in experiment [2] turned out to be 3720 nM.

`Cc1ncnc(C)c1-c1cccc2c1CC[C@H]2Oc1ccc2c(c1)OC[C@H]2CC(=O)O` [Example 86, {(S)-6-[(R)-4-(4,6-Dimethyl-pyrimidin-5-yl)-indan-1-yloxy]-2,3-dihydro-benzofuran-3-yl}-acetic acid]: in experiment [2], the EC50 was 414 nM.

As for `CC1(c2cccc3c2CC[C@H]3Oc2ccc3c(c2)OC[C@H]3CC(=O)O)CC1` [Example 87, {(S)-6-[(R)-4-(1-Methyl-cyclopropyl)-indan-1-yloxy]-2,3-dihydro-benzofuran-3-yl}-acetic acid], in experiment [2], the EC50 is 64 nM.

Take `O=C(O)C[C@@H]1COc2cc(O[C@@H]3CCc4c(-c5c(Cl)cccc5Cl)cccc43)ccc21` [Example 88, {(S)-6-[(R)-4-(2,6-Dichloro-phenyl)-indan-1-yloxy]-2,3-dihydro-benzofuran-3-yl}-acetic acid]: in experiment [2], the EC50 stood at 28 nM.

With `CC(O)(c1cccc2c1CC[C@H]2Oc1ccc2c(c1)OC[C@H]2CC(=O)O)C(F)(F)F` (stereo partly drawn) [Example 89, {(S)-6-[(R)-4-(2,2,2-Trifluoro-1-hydroxy-1-methyl-ethyl)-indan-1-yloxy]-2,3-dihydro-benzofuran-3-yl}-acetic acid], the EC50 in experiment [2] was 428 nM.

As to `Cc1cccc(Cl)c1-c1cccc2c1CC[C@H]2Oc1ccc2c(c1)OC[C@H]2CC(=O)O` [Example 90, {(S)-6-[(R)-4-(2-Chloro-6-methyl-phenyl)-indan-1-yloxy]-2,3-dihydro-benzofuran-3-yl}-acetic acid], the half-maximal effective concentration (EC50) in experiment [2] is 36 nM.

For `COc1ccc(C(F)(F)F)c(-c2cccc3c2CC[C@H]3Oc2ccc3c(c2)OC[C@H]3CC(=O)O)n1` [Example 91, {(S)-6-[(R)-4-(6-Methoxy-3-trifluoromethyl-pyridin-2-yl)-indan-1-yloxy]-2,3-dihydro-benzofuran-3-yl}-acetic acid], the EC50 in experiment [2] was determined as 69 nM.

On to `Cc1cccc2cccc(-c3cccc4c3CC[C@H]4Oc3ccc4c(c3)OC[C@H]4CC(=O)O)c12` [Example 92, {(S)-6-[(R)-4-(8-Methyl-naphthalen-1-yl)-indan-1-yloxy]-2,3-dihydro-benzofuran-3-yl}-acetic acid], for which, in experiment [2], the EC50 turned out to be 7 nM.

Take `Cc1ccnc(C)c1-c1cccc2c1CC[C@H]2Oc1ccc2c(c1)OC[C@H]2CC(=O)O` [Example 93, {(S)-6-[(R)-4-(2,4-Dimethyl-pyridin-3-yl)-indan-1-yloxy]-2,3-dihydro-benzofuran-3-yl}-acetic acid]: in experiment [2], the concentration giving a half-maximal response (EC50) came to 61 nM.

With `O=C(O)C[C@@H]1COc2cc(O[C@@H]3CCc4c(-c5ccccc5C(F)(F)C(F)(F)F)cccc43)ccc21` [Example 94, {(S)-6-[(R)-4-(2-Pentafluoroethyl-phenyl)-indan-1-yloxy]-2,3-dihydro-benzofuran-3-yl}-acetic acid], in experiment [2], the half-maximal effective concentration (EC50) amounted to 7 nM.

`CC(C)(C)c1ccc2c(c1)CC[C@H]2Oc1ccc2c(c1)OC[C@H]2CC(=O)O` [Example 95, {(S)-6-[(R)-5-tert-Butyl-indan-1-yloxy]-2,3-dihydro-benzofuran-3-yl}-acetic acid]: the EC50 in experiment [2] came out at 100 nM.

For the compound `CC(C)(C)c1cccc2c1CC[C@H]2Oc1ccc2c(c1)OC[C@H]2CC(=O)O` [Example 96, {(S)-6-[(R)-4-tert-Butyl-indan-1-yloxy]-2,3-dihydro-benzofuran-3-yl}-acetic acid], in experiment [2], the concentration for a half-maximal effect (EC50) came to 36 nM.

As to `CC(C)(C#N)c1cccc2c1CC[C@H]2Oc1ccc2c(c1)OC[C@H]2CC(=O)O` [Example 97, {(S)-6-[(R)-4-(Cyano-dimethyl-methyl)-indan-1-yloxy]-2,3-dihydro-benzofuran-3-yl}-acetic acid], in experiment [2], the EC50 stood at 171 nM.

For `O=C(O)C[C@@H]1COc2cc(O[C@@H]3CCc4c3ccc(C(F)(F)F)c4Cl)ccc21` [Example 98, {(S)-6-[(R)-4-Chloro-5-trifluoromethyl-indan-1-yloxy]-2,3-dihydro-benzofuran-3-yl}-acetic acid], the concentration giving a half-maximal response (EC50) in experiment [2] was found to be 46 nM.

For the compound `Cc1nccnc1-c1cccc2c1CC[C@H]2Oc1ccc2c(c1)OC[C@H]2CC(=O)O` [Example 99, {(S)-6-[(R)-4-(3-Methyl-pyrazin-2-yl)-indan-1-yloxy]-2,3-dihydro-benzofuran-3-yl}-acetic acid], the concentration giving a half-maximal response (EC50) in experiment [2] was found to be 3270 nM.

`COc1ccc(C)c(-c2cccc3c2CC[C@H]3Oc2ccc3c(c2)OC[C@H]3CC(=O)O)c1C` [Example 100, {(S)-6-[(R)-4-(3-Methoxy-2,6-dimethyl-phenyl)-indan-1-yloxy]-2,3-dihydro-benzofuran-3-yl}-acetic acid]: the EC50 in experiment [2] was found to be 26 nM.

As for `O=C(O)C[C@@H]1COc2cc(O[C@@H]3CCc4c3cccc4C(F)(F)C(F)(F)F)ccc21` [Example 101, {(S)-6-[(R)-4-Pentafluoroethyl-indan-1-yloxy]-2,3-dihydro-benzofuran-3-yl}-acetic acid], in experiment [2], the concentration for a half-maximal effect (EC50) came to 25 nM.
